Results from article PMC8566951, “Antifungal Activity of ToAP2D Peptide Against Sporothrix globosa” (Frontiers in Bioengineering and Biotechnology, 2021).
No end group written: not given here.

Key:
S. globosa [1] = assay: Inhibition zone test (paper disk); assay type: cell-based, Sporothrix globosa; settings: 6 µL on 5 mm paper disk, 37°C, 72 h, repeated three times, 5.00 = disk diameter
Method: S. globosa was collected from clinical patients diagnosed with cutaneous sporotrichosis at our hospital. All strains were identified as S. globosa using mycelial-to-yeast phase conversion culture and molecular identification methods. All isolates were grown on Sabouraud’s dextrose agar. After 7 days of culture, the fungal colonies were transferred to brainheart infusion broth and incubated in a rotary shaker (150 rpm/min) at 37°C for another 7 days. S. globosa was centrifuged and resuspended in PBS and diluted to 1.0 × 10^8 cfu/ml.
The antifungal activity of ToAP2A, ToAP2C, and ToAP2D against S. globosa was analyzed using the inhibition zone test. S. globosa was collected and diluted to 1.0 × 10^8 cfu/ml with a hemocytometer. We then evenly inoculated on brainheart infusion broth agar plates with 50 µL aliquots of the dilution. Paper disks with 5 mm diameter were pasted on the surface of the solid culture medium after high-pressure sterilization. ToAP2A, ToAP2C, and ToAP2D (4/2/1 mg/ml) and the control sample (physiological saline with a concentration of 0.9%) were dripped onto the filter paper with 6 µL, respectively, and cultured in 37°C for 72 h to observe whether there is a zone of inhibition. The diameter of the inhibition zone was measured and recorded with a vernier caliper. The above steps were repeated three times to calculate the average value and standard deviation of the inhibition zone diameter of each sample.

[2] = ref Guilhelmelli et al., 2016; cited from earlier work
From the text: (§1) As the biological characteristics of S. globosa are very similar to C. albicans, we then use ToAP2structure as a template, through reasonable molecular design and modification, to study the inhibitory e ...

Candida albicans = settings: ref Guilhelmelli et al., 2016; cited from earlier work
From the text: as §1

S. globosa [3] = assay: S. globosa footpad infection in mice, skin lesion area; assay type: in vivo, BALB/c mice; settings: itraconazole gavage 60 mg/kg daily from Day 10, mean ± SD, n = 6
Method: The animal protocol was approved by the Institutional Ethics Committee for Animal Use in Research, and our animal care followed Animal Care guidelines of the Jilin University. Mice were randomly divided into study group (n = 51) and the healthy control (HC) group (n = 6). Mice in the study group were injected with 0.05 ml S. globosa suspension (1 × 10^8 cfu/ml) on their footpads after alcohol cotton ball sterilization. The condition of the skin was monitored daily. […] After that, CO2 lattice laser was used to promote ToAP2D absorption, and the mice of the study group were further divided into infection group (n = 12), laser group (n = 12), laser + ToAP2D group (n = 12), and itraconazole group (n = 12), and the antifungal treatments were given subsequently.
In the laser group, the injection feet were subjected to CO2 lattice laser 10,600 nm irradiation at room temperature with an irradiation energy density of 120 mJ/mm^2. The laser scanning area was 15 mm × 15 mm with a lattice density of 0.3 mm and 25.0% coverage rate. The laser treatment was administered every […] on Day 10, 14, 18, and 22. In the laser + ToAP2D group, mice were subjected to CO2 lattice laser irradiation with the same parameters in the laser group to assist the absorption of ToAP2D. Almost immediately after laser irradiation, the antibacterial peptide ToAP2D (4 mg/ml, diluted with 0.9% normal saline) was repeatedly rolled onto the laser-irradiated part of the footpad, until it was completely absorbed every day. In the itraconazole group, mice were gavaged with itraconazole at a dose of 60 mg/kg daily. The size of the footpads of mice was measured every 3 days and analyzed using Photoshop. On Day 18 and 26, six mice in each group were sacrificed, and their feet tissues were collected for further skin histology and immunohistochemistry studies.

S. globosa [4] = assay: Minimal inhibitory concentration, microdilution assay; assay type: cell-based, Sporothrix globosa; settings: brainheart infusion broth, 1 × 10^8 cfu/ml, 37°C, 7 days, at least three experiments
Method: The minimal inhibitory concentration (MIC) of ToAP2D against S. globosa was determined using the microdilution assay. In brief, twofold serial dilutions of ToAP2D were prepared in 96-well polystyrene microplates to a final volume of 100 µL. Final concentrations of ToAP2D ranged from 5 mg/ml to 0.62 μg/ml. In each plate, wells were included without peptide as control. Then, 100 µL of the liquid medium (brainheart infusion broth) was added to each well with a final concentration of 1 × 10^8 cfu/ml for S. globosa. The plates were incubated at 37°C for 7 days. In addition, 20 µL of culture from each well was inoculated on the brainheart solid medium and cultured in a constant temperature incubator at 37°C for 7 days to observe the growth of colonies. […] The experiments were performed at least three times on separate dates.

[5] = Serum stability by inhibition zone test; assay type: in vitro ADME; settings: human serum diluted 1:1 with 0.9% normal saline, ToAP2D 4 mg/ml, 10 h at 37°C, read-out inhibition zone after 24 h
Method: The stability of ToAP2D in human serum was analyzed using the inhibition zone test. 5 ml of healthy human blood (from the physical examination center of our hospital) was extracted using a sterile syringe, stored at room temperature for 1 h, and then stored at 4°C overnight. After 24 h, the blood was centrifuged at 1,000 rpm/min for 10 min, and 50 µL of serum in the supernatant was gently sucked out with a pipette gun. The serum was diluted with 50 µL of 0.9% normal saline, and then, the antimicrobial peptide ToAP2D was dissolved in the diluted serum.
To determine the stability of ToAP2D in human serum, ToAP2D (final concentration 4 mg/ml) was mixed with the diluted serum for 0, 0.5, 1, 2, 4, 6, 8, and 10 h at 37°C, respectively. In brief, S. globosa was inoculated on brainheart infusion broth agar plates, 5.0 mm paper disks were placed on top, and 6 µL aliquots of the serumpeptide mixture were added to the paper disks at each incubation time point. After 24 h of incubation, the inhibitory zones against S. globosa were measured and recorded.

[6] = Acute toxicity, HE staining of major organs; assay type: in vivo; settings: BALB/c mice, 60 mg/kg tail vein, organs after 24 h, n = 5
Method: To examine their toxicity, an in vivo animal study was performed. The 10 healthy BALB/c mice were randomly divided into ToAP2D group (n = 5) and the control group (n = 5). The mice in the ToAP2D group were injected with ToAP2D through the tail vein at a dose of 60 mg/kg, and the control group mice were injected with the same volume of normal saline. After 24 h, the major organs (e.g., brain, heart, liver, and kidney) of the mice were excised and fixed in 10% buffered formalin for 1 day. The tissues were then embedded in paraffin and sectioned for hematoxylin and eosin (HE) staining.

In the case of GAKLIPGVMKLFRKK [ToAP2C], the “Inhibition zone (mm) mean ± standard deviation (SD)” value (S. globosa [1]; 1 mg/ml) is reported as 5.00 ± 0.00 mm, the “Inhibition zone (mm) mean ± standard deviation (SD)” value (S. globosa [1]; 2 mg/ml) is reported as 6.37 ± 0.27 mm and the “Inhibition zone (mm) mean ± standard deviation (SD)” value (S. globosa [1]; 4 mg/ml) is reported as 8.12 ± 0.33 mm.

In the case of GSKLIPGVMKLFSKK [ToAP2A], the “Inhibition zone (mm) mean ± standard deviation (SD)” value (S. globosa [1]; 1 mg/ml) is reported as 5.00 ± 0.00 mm, the “Inhibition zone (mm) mean ± standard deviation (SD)” value (S. globosa [1]; 2 mg/ml) is reported as 6.59 ± 0.34 mm and the “Inhibition zone (mm) mean ± standard deviation (SD)” value (S. globosa [1]; 4 mg/ml) is reported as 9.23 ± 0.34 mm.

In the case of FFGTLFKLGSKLIPGVMKLFSKKKER [ToAP2], the cytotoxic activity [2] is listed as “low cytotoxic”, the hemolytic activity [2] is listed as “low hemolytic” and the “growth of Candida albicans” value (Candida albicans) is listed as “could inhibit the growth”.

In the case of `CCC(C)n1ncn(-c2ccc(N3CCN(c4ccc(OCC5COC(Cn6cncn6)(c6ccc(Cl)cc6Cl)O5)cc4)CC3)cc2)c1=O` (stereo not shown) [Itraconazole, itraconazole], the “Skin lesion area (mm^2)” value (S. globosa [3]; Day14) is reported as 27.82 ± 2.84 ^** mm^2, the “Skin lesion area (mm^2)” value (S. globosa [3]; Day18) is reported as 21.47 ± 0.92 ^*** mm^2 and the “Skin lesion area (mm^2)” value (S. globosa [3]; Day22) is reported as 14.94 ± 2.93 ^** mm^2. The “Skin lesion area (mm^2)” value (S. globosa [3]; Day26) was 11.81 ± 0.85 mm^2.

With GDKLIPGVMKLFRKK [ToAP2D] the “Inhibition zone (mm) mean ± standard deviation (SD)” value (S. globosa [1]; 1 mg/ml) was 5.00 ± 0.00 mm, the “Inhibition zone (mm) mean ± standard deviation (SD)” value (S. globosa [1]; 2 mg/ml) was 6.86 ± 0.25 mm and the “Inhibition zone (mm) mean ± standard deviation (SD)” value (S. globosa [1]; 4 mg/ml) was 11.56 ± 0.36 mm. For the same molecule, the “minimal inhibitory concentration (MIC)” value (S. globosa [4]) was 156.25 µg/mL, the “antifungal activity against S. globosa after incubation in serum, compared to the original drug” value [5] was over 90% and the “acute toxicity (HE staining of main organs)” value [6] was “no acute toxicity”.
